Data: patent US11512053B2, “Arginine methyltransferase inhibitors and uses thereof” (priority 2013, dated 2022)
Structures can show the parent of a compound that is named as a salt. Where two headings read alike, the source gives them in different places.

What was measured:
[1] = target: full-length human PRMT1 isoform 1 (GST-tagged) (Homo sapiens, UniProt Q99873); assay: PRMT1 Biochemical Assay (3H-SAM Flashplate, peptide substrate)
Summary of the method: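 GST-tagged full-length PRMT1 from baculovirus-infected cells, preincubated 30 min at room temperature with compound in 20 mM Bicine pH 7.6, TCEP, BSG, Tween 20. Reaction started with 3H-SAM plus biotinylated peptide, stopped with 300 uM unlabelled SAM. Streptavidin Flashplate capture and scintillation counting; % inhibition curve-fitted for IC50.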

[2] = target: full-length human PRMT6 (Flag- and His-tagged) (Homo sapiens, UniProt Q96LA8); assay: PRMT6 Biochemical Assay (3H-SAM Flashplate, peptide substrate); conditions: read-out: Biochemical IC50 PRMT6
Sequence of full-length human PRMT6 (Flag- and His-tagged) (Q96LA8 with tags, fused parts or gaps): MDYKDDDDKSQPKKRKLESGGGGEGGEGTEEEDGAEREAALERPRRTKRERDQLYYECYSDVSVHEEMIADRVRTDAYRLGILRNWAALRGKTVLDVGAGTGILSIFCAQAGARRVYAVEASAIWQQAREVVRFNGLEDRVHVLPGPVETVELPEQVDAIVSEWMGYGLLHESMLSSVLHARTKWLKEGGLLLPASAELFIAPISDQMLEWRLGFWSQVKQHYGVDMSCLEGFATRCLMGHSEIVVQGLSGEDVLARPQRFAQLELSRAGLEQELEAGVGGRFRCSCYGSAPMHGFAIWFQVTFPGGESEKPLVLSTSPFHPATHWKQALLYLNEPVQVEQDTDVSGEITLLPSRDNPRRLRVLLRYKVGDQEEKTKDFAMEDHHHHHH
Summary of the method: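 Flag/His-tagged full-length human PRMT6 (1 nM) preincubated with compound 30 min at room temperature in Bicine pH 7.6 buffer, then reaction started with 3H-SAM 200 nM plus unlabeled SAM 250 nM and biotinylated H4 36-50 peptide (K44me1) 75 nM; 2% DMSO. Quenched with 400 uM cold SAM; labeled peptide captured on streptavidin Flashplate, counted; % inhibition vs DMSO and 1 mM SAH controls fit by 3- or 4-parameter curve.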

[3] = single experiment or average of multiple experiments

Sequence of full-length human PRMT1 isoform 1 (GST-tagged) (Q99873 with tags, fused parts or gaps): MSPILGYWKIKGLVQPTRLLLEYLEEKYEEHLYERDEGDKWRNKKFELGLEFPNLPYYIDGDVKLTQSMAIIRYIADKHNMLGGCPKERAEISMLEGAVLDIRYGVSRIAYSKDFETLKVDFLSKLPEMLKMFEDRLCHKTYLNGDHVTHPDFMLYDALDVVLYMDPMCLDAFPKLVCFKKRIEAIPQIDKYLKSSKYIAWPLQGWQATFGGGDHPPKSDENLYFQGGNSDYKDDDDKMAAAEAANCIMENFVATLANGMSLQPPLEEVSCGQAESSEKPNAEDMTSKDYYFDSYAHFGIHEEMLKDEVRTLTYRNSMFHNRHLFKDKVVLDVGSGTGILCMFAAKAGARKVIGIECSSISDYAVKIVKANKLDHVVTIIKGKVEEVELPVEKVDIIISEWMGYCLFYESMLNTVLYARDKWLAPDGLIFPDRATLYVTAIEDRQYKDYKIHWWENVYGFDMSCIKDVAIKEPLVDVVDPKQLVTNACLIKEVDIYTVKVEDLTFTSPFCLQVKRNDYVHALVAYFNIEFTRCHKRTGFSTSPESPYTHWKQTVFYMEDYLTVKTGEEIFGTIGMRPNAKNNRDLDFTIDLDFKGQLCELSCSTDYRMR

COc1cccc(/C=C/c2n[nH]cc2CN(C)CCN)c1 [Compound 17]
IC50 [1, 3]: 10 nM | IC50 [2, 3]: 50 nM

CNCCN(C)Cc1c[nH]nc1C1CCN(C(=O)Cc2ccccc2)CC1 [Compound 32]
IC50 [1, 3]: 20 nM | IC50 [2, 3]: 20 nM

CNCCN(C)Cc1c[nH]nc1/C=C/c1ccc(C(F)(F)F)cc1 [Compound 6]
IC50 [1, 3]: 40 nM | IC50 [2, 3]: 30 nM

CNCCN(C)Cc1c[nH]nc1C1CC(C)(C)OC(C)(C)C1 [Compound 59]
IC50 [1]: < 100 nM | IC50 [1, 3]: 19.6 nM | IC50 [2]: 101 to 1000 nM | IC50 [2, 3]: 128 nM

CCC(CC)OC1CCC(c2n[nH]cc2CN(C)CCNC)CC1 (stereo not drawn) [Compound 70]
IC50 [1]: < 100 nM | IC50 [1, 3]: 9.2 nM | IC50 [2]: < 100 nM | IC50 [2, 3]: 44 nM

CCOCC1CC(c2n[nH]cc2CN(C)CCNC)CC(COCC)C1(C)C (stereo not drawn) [Compound 87]
IC50 [1]: 101 to 1000 nM | IC50 [1, 3]: 564 nM | IC50 [2]: 3010 to 10000 nM | IC50 [2, 3]: 3730 nM

CN(CCN)Cc1c[nH]nc1/C=C/c1ccc(C(F)(F)F)cc1 [Compound 18]
IC50 [2, 3]: 10 nM

CNCCN(C)Cc1c[nH]nc1C1CCC(C)(C)CC1 [Compound 52]
IC50 [1]: < 100 nM | IC50 [1, 3]: 4.7 nM | IC50 [2]: < 100 nM | IC50 [2, 3]: 24.3 nM

CNCCN(C)Cc1c[nH]nc1C1CCC(C(C)C)CC1 (stereo not drawn) [Compound 50]
IC50 [1]: < 100 nM | IC50 [1, 3]: 8.6 nM | IC50 [2]: < 100 nM | IC50 [2, 3]: 20.6 nM

CNCCN(C)Cc1c[nH]nc1C1CCN(CC(C)C)CC1 [Compound 39, N^1-((3-(1-isobutylpiperidin-4-yl)-1H-pyrazol-4-yl)methyl)-N^1,N^2-dimethylethane-1,2-diamine]
IC50 [2, 3]: 10 nM

CNCCN(C)Cc1c[nH]nc1/C=C/c1ccc(OC)cc1 [Compound 7]
IC50 [1, 3]: 10 nM | IC50 [2, 3]: 20 nM

CNCCN(C)Cc1c[nH]nc1C1CCC2(CCCCC2)OC1 (stereo not drawn) [Compound 62]
IC50 [1]: < 100 nM | IC50 [1, 3]: 11.9 nM | IC50 [2]: < 100 nM | IC50 [2, 3]: 29 nM

CNCCN(C)Cc1c[nH]nc1C1CCC(COCCOC)(COCCOC)CC1 [Compound 60]
IC50 [1]: < 100 nM | IC50 [1, 3]: 27.5 nM | IC50 [2]: 101 to 1000 nM | IC50 [2, 3]: 155 nM

CNCCN(C)Cc1c[nH]nc1C1CCN(C(=O)C(C)C)CC1 [Compound 34]
IC50 [1, 3]: 20 nM | IC50 [2, 3]: 30 nM

CNCCN(C)Cc1c[nH]nc1[C@H]1CCC(C)(C)[C@@H](C(=O)NCCOC)C1 [Compound 268]
IC50 [1]: < 100 nM | IC50 [1, 3]: 68.6 nM | IC50 [2]: 101 to 1000 nM | IC50 [2, 3]: 141 nM

CNCCN(C)Cc1c[nH]nc1C1CCC2(CCCO2)CC1 (stereo not drawn) [Compound 51]
IC50 [1]: < 100 nM | IC50 [1, 3]: 9.4 nM | IC50 [2]: < 100 nM | IC50 [2, 3]: 23.9 nM

CN(CCN)Cc1c[nH]nc1C1CCCCC1 [Compound 22]
IC50 [1, 3]: 10 nM | IC50 [2, 3]: 20 nM

CNCCN(C)Cc1c[nH]nc1/C=C/c1ccc(-c2ccccc2)cc1 [Compound 5]
IC50 [1, 3]: 10 nM

CNCCN(C)Cc1c[nH]nc1C1CCNCC1 [Compound 42]
IC50 [2, 3]: 20 nM

CNCCN(C)Cc1c[nH]nc1C1CCN(C)CC1 [Compound 41]
IC50 [1, 3]: 10 nM

CNCCN(C)Cc1ccnn1C1CCC2(CC1)CC(C)(C)CO2 (stereo not drawn) [Compound 274, trifluoroacetate]
IC50 [1]: < 100 nM | IC50 [1, 3]: 8.19 nM | IC50 [2]: 101 to 1000 nM | IC50 [2, 3]: 103 nM

CC(C)Cc1n[nH]cc1CN(C)CCN [Compound 28, N^1-((3-iso-butyl-1H-pyrazol-4-yl)methyl)-N^1-methylethane-1,2-diamine]
IC50 [1, 3]: 180 nM | IC50 [2, 3]: 80 nM

CNCCN(C)Cc1c[nH]nc1C1CCC(CCOC)CC1 (stereo not drawn) [Compound 55]
IC50 [1]: < 100 nM | IC50 [1, 3]: 12.8 nM | IC50 [2]: < 100 nM | IC50 [2, 3]: 40.4 nM

CNCCN(C)Cc1c[nH]nc1C1CCC(OC(C)C)CC1 (stereo not drawn) [Compound 56]
IC50 [1]: < 100 nM | IC50 [1, 3]: 13.8 nM | IC50 [2]: < 100 nM | IC50 [2, 3]: 61.8 nM

CN(CCN)Cc1c[nH]nc1C(C)(C)C [Compound 27]
IC50 [2, 3]: 2410 nM

CNCCN(C)Cc1c[nH]nc1C1CCC(OCCOC)CC1 (stereo not drawn) [Compound 58]
IC50 [1]: < 100 nM | IC50 [1, 3]: 26.5 nM | IC50 [2]: < 100 nM | IC50 [2, 3]: 108 nM

CNCCN(C)Cc1c[nH]nc1C1CCN(C(=O)CC(C)C)CC1 [Compound 40, 3-methyl-1-(4-(4-((methyl(2-(methylamino)ethyl)amino)methyl)-1H-pyrazol-3-yl)piperidin-1-yl)butan-1-one]
IC50 [1, 3]: 20 nM | IC50 [2, 3]: 20 nM

Cc1n[nH]cc1CN(C)CCN [Compound 30]
IC50 [2, 3]: 6590 nM

Cc1ccc(/C=C/c2n[nH]cc2CN(C)CCN)cc1 [Compound 8]
IC50 [1, 3]: 20 nM | IC50 [2, 3]: 40 nM

CN(CCN)Cc1c[nH]nc1C1=CCOCC1 [Compound 10]
IC50 [1, 3]: 390 nM | IC50 [2, 3]: 310 nM

CNCCN(C)Cc1c[nH]nc1C#Cc1ccc(F)cc1 [Compound 4]
IC50 [1, 3]: 20 nM | IC50 [2, 3]: 20 nM

COC/C=C/c1n[nH]cc1CN(C)CCN [Compound 19]
IC50 [1, 3]: 190 nM | IC50 [2, 3]: 170 nM

CNCCN(C)Cc1c[nH]nc1C1CC(COC)C(C)(C)C(COC)C1 (stereo not drawn) [Compound 86]
IC50 [1]: 1010 to 3000 nM | IC50 [1, 3]: 1940 nM | IC50 [2]: 3010 to 10000 nM | IC50 [2, 3]: 3410 nM

CNCCN(C)Cc1c[nH]nc1[C@@H]1CCC(C)(C)[C@@H](C(=O)NCCCOC)C1 [Compound 271, (1S,5R)—N-(3-methoxypropyl)-2,2-dimethyl-5-[4-({methyl[2-(methylamino)ethyl]amino}methyl)-1H-pyrazol-3-yl]cyclohexane-1-carboxamide]
IC50 [1]: < 100 nM | IC50 [1, 3]: 37.1 nM | IC50 [2]: 101 to 1000 nM | IC50 [2, 3]: 121 nM

CN(CCN)Cc1c[nH]nc1/C=C/c1ccc(F)cc1F [Compound 13]
IC50 [1, 3]: 10 nM | IC50 [2, 3]: 10 nM

CNCCN(C)Cc1c[nH]nc1[C@@H]1CCC(C)(C)[C@@H](C(=O)NCCOC)C1 [Compound 269]
IC50 [1]: < 100 nM | IC50 [1, 3]: 51.3 nM | IC50 [2]: 101 to 1000 nM | IC50 [2, 3]: 107 nM

CN(CCN)Cc1c[nH]nc1/C=C/c1cc(C(F)(F)F)cc(C(F)(F)F)c1 [Compound 14]
IC50 [1, 3]: 90 nM | IC50 [2, 3]: 930 nM

CN(CCN)Cc1n[nH]cc1C1CCC(N2CCOCC2)CC1 (stereo not drawn) [Compound 44, N^1-methyl-N^1-((4-(4-morpholinocyclohexyl)-1H-pyrazol-3-yl)methyl)ethane-1,2-diamine]
IC50 [2, 3]: 20 nM

CN(CCN)Cc1n[nH]cc1C1CCC(C)(C)CC1 [Compound 36]
IC50 [2, 3]: 10 nM

CN(CCN)Cc1c[nH]nc1C1CCC(C)(C)CC1 [Compound 38, N^1-((3-(4,4-dimethylcyclohexyl)-1H-pyrazol-4-yl)methyl)-N^1-methylethane-1,2-diamine]
IC50 [2, 3]: 10 nM

CN(CCN)Cc1c[nH]nc1/C=C/c1cc(F)cc(F)c1 [Compound 15]
IC50 [1, 3]: 50 nM | IC50 [2, 3]: 40 nM

CNCCN(C)Cc1c[nH]nc1C1CCC(C)(C)C(COCC(C)C)C1 (stereo not drawn) [Compound 95]
IC50 [1]: < 100 nM | IC50 [1, 3]: 9.35 nM | IC50 [2]: < 100 nM | IC50 [2, 3]: 69.2 nM

CNCCN(C)Cc1c[nH]nc1C1CCC(C)(C)C(C(=O)NCCCOC)C1 (stereo not drawn) [Compound 93]
IC50 [1]: < 100 nM | IC50 [1, 3]: 31.3 nM | IC50 [2]: < 100 nM | IC50 [2, 3]: 71.9 nM

CN(CCN)Cc1c[nH]nc1CCc1ccc(F)cc1 [Compound 23, N^1-((3-(4-fluorophenethyl)-1H-pyrazol-4-yl)methyl)-N^1-methylethane-1,2-diamine]
IC50 [1, 3]: 10 nM | IC50 [2, 3]: 10 nM

CNCCN(C)Cc1c[nH]nc1C1CCC2(CCC(C)(C)CC2)OC1 (stereo not drawn) [Compound 65]
IC50 [1]: < 100 nM | IC50 [1, 3]: 9.65 nM | IC50 [2]: < 100 nM | IC50 [2, 3]: 41.9 nM

CN(CCN)Cc1c[nH]nc1C1CC1 [Compound 12]
IC50 [1, 3]: 1580 nM | IC50 [2, 3]: 1080 nM

COc1cc(/C=C/c2n[nH]cc2CN(C)CCN)cc(OC)c1 [Compound 11]
IC50 [1, 3]: 10 nM | IC50 [2, 3]: 50 nM

CNCCN(C)Cc1c[nH]nc1C1CCC(C)(C)C(C(=O)NCC(C)C)C1 (stereo not drawn) [Compound 90]
IC50 [1]: < 100 nM | IC50 [1, 3]: 34.4 nM | IC50 [2]: 101 to 1000 nM | IC50 [2, 3]: 122 nM

CNCCN(C)Cc1c[nH]nc1[C@H]1CC[C@]2(CC1)CC(C)(C)CO2 [Compound 134, methyl[2-(methylamino)ethyl]([3-[(5r,8r)-3,3-dimethyl-1-oxaspiro[4.5]decan-8-yl]-1H-pyrazol-4-yl]methyl)amine]
IC50 [2]: < 100 nM | IC50 [2, 3]: 35.1 nM

CC1CCC(c2n[nH]cc2CN(C)CCN)CC1 (stereo not drawn) [Compound 37, N^1-methyl-N^1-((3-(4-methylcyclohexyl)-1H-pyrazol-4-yl)methyl)ethane-1,2-diamine]
IC50 [1, 3]: 10 nM | IC50 [2, 3]: 10 nM

CNCCN(C)Cc1c[nH]nc1C1CCC(C)(C)[C@H](OCC2CCOCC2)C1 (stereo partly drawn) [Compound 273, ({3-[(3R)-4,4-dimethyl-3-(oxan-4-ylmethoxy)cyclohexyl]-1H-pyrazol-4-yl}methyl)(methyl)[2-(methylamino)ethyl]amine]
IC50 [1]: < 100 nM | IC50 [1, 3]: 11.4 nM | IC50 [2]: < 100 nM | IC50 [2, 3]: 40.5 nM

CN(CCN)Cc1c[nH]nc1C1CCCC1 [Compound 31]
IC50 [1, 3]: 110 nM | IC50 [2, 3]: 30 nM

CNCCN(C)Cc1c[nH]nc1[C@H]1CC[C@@]2(CC1)CC(C)(C)CO2 [Compound 133, Methyl[2-(methylamino)ethyl]([3-[(5s,8s)-3,3-dimethyl-1-oxaspiro[4.5]decan-8-yl]-1H-pyrazol-4-yl]methyl)amine]
IC50 [2]: < 100 nM | IC50 [2, 3]: 12.4 nM

CN(CCN)Cc1c[nH]nc1C1CCC1 [Compound 26]
IC50 [2, 3]: 510 nM

CC1CCC(c2c[nH]nc2CN(C)CCN)CC1 (stereo not drawn) [Compound 35]
IC50 [2, 3]: 10 nM

CCCc1n[nH]cc1CN(C)CCN [Compound 29]
IC50 [2, 3]: 290 nM
